Key:
[1] = system: Leishmania donovani GE1F8R strain; assay: In vivo efficacy assay against SAG-resistant strain; settings: BALB/c mice, i.v. 8 weeks after inoculation, 30 days post treatment
Protocol: Inbred mice of 4-6 weeks old, weigh […] and of any sex, strain BALB/c were infected with Leishmania donovani GE1F8R strain by intravenous inoculation with 2.5×10^7 amastigotes from the spleen of an infected hamster. Eight weeks after inoculation, the mice were divided into groups of 4-5 animals and dosed intravenously into the tail vein with optimal dose of free SAG, equivalent amount of free SAG, empty PC-SA liposome or SAG entrapped PC-SA liposome ([…]). Mice were sacrificed on 30 days post treatment. Livers and spleens were excised and weighed. Bone marrow was also isolated and smeared on glass slides. Impressions smears were prepared from the cut surface of the liver and spleen. The impression smears were stained with Giemsa, and number of amastigotes counted microscopically per 500 cell nuclei. The results of 30 days post treatment are expressed as Leishman Donovan units and percentage suppression in parasitemia with respect untreated infected control were calculated.

[2] = system: Leishmania donovani, AG83; assay: In vivo activity screening in established infection model with graded doses to calculate 50% effective dose; settings: for % Inhibition of liver parasite level / % Inhibition of spleen parasite level: BALB/c mice, i.v., 30 days post treatment
Text: Inbred mice of 4-6 weeks old, weigh 20 g and of any sex, strain BALB/c were infected with Leishmania donovani, AG83, by intravenous inoculation with 2.5×10^7 amastigotes from the spleen of an infected hamster. Eight weeks after inoculation, the mice were divided into groups of 4-5 animals and dosed intravenously into the tail vein with graded dose of free SAG, empty PC-SA liposome, or SAG entrapped PC-SA liposome. Mice were sacrificed on 30 days post treatment. The livers and spleens were excised and weighed. Impressions smears were prepared from the cut surface of the liver and spleen. The impression smears were stained with Giemsa, and number of amastigotes counted microscopically per 500 cell nuclei. The results of 30 days post treatment are expressed as percentage suppression in parasite burden in compared to infected but untreated mice. Thereby, the dosage necessary to reduce the parasite count to 50% of the untreated group could be calculated.

[3] = system: Leishmania donovani, AG83; assay: In vivo activity screening in chronic infection model (12 weeks post infection); settings: BALB/c mice, single i.v. dose 12 weeks post infection, 30 days post treatment; SAG 0.015-0.02 g/kg body wt.
Text: Inbred mice of 4-6 weeks old, weigh 20 g and of any sex, strain BALB/c were infected with Leishmania donovani, AG83, by intravenous inoculation with 2.5×10^7 amastigotes from the spleen of an infected hamster. Twelve weeks after inoculation, the mice were divided into groups of 4-5 animals and dosed intravenously into the tail vein with empty PC-SA liposome (1-1.1 g/kg body wt.), free SAG (0.015-0.020 g/kg body wt.) or equivalent amount of SAG entrapped in PC-SA liposome (0.015 g/kg of SAG in 1-1.1 g/kg body wt of liposome). Mice were sacrificed on 30 days post treatment. Livers and spleens were excised and weighed. Impressions smears were prepared from the cut surface of the liver and spleen. The impression smears were stained with Giemsa, and number of amastigotes counted microscopically per 500 cell nuclei. The results of 30 days post treatment are shown below and expressed percentage suppression in parasitemia with respect to untreated infected control calculated.

[4] = system: Leishmania donovani, AG83; assay: In vivo efficacy in established infection model (8 weeks post infection); settings: BALB/c mice, single i.v. dose 8 weeks post infection, 30 days post treatment, SAG 0.3-0.4 g/kg body wt.
Text: Inbred mice of 4-6 weeks old, weigh 20 g and of any sex, strain BALB/c were infected with Leishmania donovani, AG83, by intravenous inoculation with 2.5×10^7 amastigotes from the spleen of an infected hamster. Eight weeks after inoculation, the mice were divided into groups of 4-5 animals and administered at a single dose intravenously into the tail vein with optimal dose of free SAG (0.3 g/kg wt.) or empty PC-SA liposome (1.1 g/kg wt.) or SAG entrapped PC-SA liposome (0.015 g/kg of SAG into 1.1 g/kg body wt.) or SAG entrapped in PC-Chol liposome (0.015 g/kg of SAG into 1.25 g/kg wt. of lipid). Mice were sacrificed on 30 days post treatment. Livers and spleens were excised and weighed. Bone marrow was also isolated from femur bone and smeared on glass slides. Impressions smears were prepared from the cut surface of the liver and spleen. The impression smears were stained with Giemsa, and number of amastigotes counted microscopically per 500 cell nuclei. The results of 30 days post treatment are shown below and expressed as percentage suppression in parasitemia with respect to untreated infected.

[5] = liver parasite level, dose expressed as SAG
[6] = spleen parasite level, dose expressed as SAG

Compound: C[C@@H]1[C@H](O)[C@@H](C)/C=C/C=C/C=C/C=C/C=C/C=C/C=C/[C@H](O[C@@H]2O[C@H](C)[C@@H](O)[C@H](N)[C@@H]2O)C[C@@H]2O[C@](O)(C[C@@H](O)C[C@@H](O)[C@H](O)CC[C@@H](O)C[C@@H](O)CC(=O)O[C@H]1C)C[C@H](O)[C@H]2C(=O)O [Amphotericin B]
- % Inhibition of parasite level ([1]; bone marrow, Amphotericin B 0.002-0.0025 g/kg body wt.): 85.091%
- % Inhibition of parasite level ([1]; liver, Amphotericin B 0.002-0.0025 g/kg body wt.): 87.778%
- % Inhibition of parasite level ([1]; spleen, Amphotericin B 0.002-0.0025 g/kg body wt.): 85.091%

Compound: sodium antimony gluconate [SAG]
- % Inhibition of liver parasite level ([2]; SAG 0.005 g/kg body wt.): 56.55%
- % Inhibition of spleen parasite level ([2]; SAG 0.005 g/kg body wt.): 41.27%
- % Inhibition of liver parasite level ([2]; SAG 0.010 g/kg body wt.): 56.7%
- % Inhibition of spleen parasite level ([2]; SAG 0.010 g/kg body wt.): 50.95%
- % Inhibition of liver parasite level ([2]; SAG 0.050 g/kg body wt.): 61.29%
- % Inhibition of spleen parasite level ([2]; SAG 0.050 g/kg body wt.): 55.67%
- % Inhibition of liver parasite level ([2]; SAG 0.10 g/kg body wt.): 88.03%
- % Inhibition of spleen parasite level ([2]; SAG 0.10 g/kg body wt.): 65.79%
- % Inhibition of liver parasite level ([2]; SAG 0.30 g/kg body wt.): 92.73%
- % Inhibition of spleen parasite level ([2]; SAG 0.30 g/kg body wt.): 70.49%
- % Inhibition of liver parasite level ([2]; SAG 0.50 g/kg body wt.): 96.6%
- % Inhibition of spleen parasite level ([2]; SAG 0.50 g/kg body wt.): 80.33%
- ED50 (+S.E) Liver, SAG [2, 5]: 0.012 + 0.004 g/kg body wt.
- ED90 (+S.E) Liver, SAG [2, 5]: 0.347 + 0.005 g/kg body wt.
- ED50 (+S.E) Spleen, SAG [2, 6]: 0.145 + 0.020 g/kg body wt.
- ED90 (+S.E) Spleen, SAG [2, 6]: 0.493 + 0.028 g/kg body wt.
- % Inhibition of liver parasite level [3]: 50.88%
- % Inhibition of spleen parasite level [3]: 26.69%
- % Inhibition of liver parasite level [4]: 82.322%
- % Inhibition of spleen parasite level [4]: 70%
- % Inhibition of parasite level ([4]; bone marrow): 44.029%
- % Inhibition of parasite level ([1]; bone marrow, SAG 0.015-0.02 g/kg body wt.): 0%
- % Inhibition of parasite level ([1]; bone marrow, SAG 0.3 g/kg body wt.): 16.836%
- % Inhibition of parasite level ([1]; liver, SAG 0.015-0.02 g/kg body wt.): 0%
- % Inhibition of parasite level ([1]; liver, SAG 0.3 g/kg body wt.): 5.309%
- % Inhibition of parasite level ([1]; spleen, SAG 0.015-0.02 g/kg body wt.): 0%
- % Inhibition of parasite level ([1]; spleen, SAG 0.3 g/kg body wt.): 16.836%
